For data set [1], the system named is Calvarial osteoblast cells. As to the kind of experiment: MTT cell proliferation assay. Format: cell-based, rat. Conditions: 10^−10 M to 10^−6M, 24 hrs. The protocol: (§1) Neonatal rat calvarial cell cultures are prepared as described previously (Endocrinology 145:3451) using slight modification. Briefly, for primary osteoblast cell cultures, frontal and parietal bones from Sprague-Dawley rat neonates (1-3 day old) are digested in 0.1% collagenase/0.1% dispase in α-MEM to obtain 5 sequential digests. The second through fifth digests are combined and grown to confluence at 37° C. and 5% CO2 in air in α-MEM, supplemented with 10% fetal bovine serum (FBS), 2 mM glutamine, 100 U/ml penicillin-streptomycin, Non-essential amino acid solution and sodium pyruvate.
MTT [3-(4,5-dimethylthiazol-2-yl)-2,5-diphenyltetrazolium bromide] assay, first described by Mosmann in 1983, is based on the ability of a mitochondrial dehydrogenase enzyme from viable cells to cleave the tetrazolium rings of the pale yellow MTT and form a dark blue formazan crystals which is largely impermeable to cell membranes, thus resulting in its accumulation within healthy cells. Solubilisation of the cells by the addition of a detergent results in the liberation of the crystals which are solubilized. The number of surviving cells is directly proportional to the level of the formazan product created. The color can then be quantified using a simple colorimetric assay. The results can be read on a multiwell scanning spectrophotometer (Mosmann T. Rapid colorimetric assay for cellular growth and survival: application to proliferation and cytotoxicity assays. J Immunol Methods. 1983 Dec. 16; 65(1-2):55-63).
Calvarial osteoblast cells plated at a density of 2.0×10^3 cells/200 ul in 96 wells plates. Cells were grown to 60% confluency and then treated with following compounds S006-1709, S006-1710, 5006-1711, S006-1713 and; S006-1714 at concentrations ranging from 10^−10 M to 10^−6M for 24 hrs. After treatment media was removed and 10 mM MTT was added solution in phenol red free DMEM media. After an incubation of 4 hrs the MTT solution was removed. Blue colored crystals were formed which were dissolved in DMSO and absorbance was read on ELISA plate reader at 570 nm wavelength.
A general note: Formazan colour is commonly taken as a measure of viable cells.

For data set [2], the system named is Calvarial osteoblasts. The data set is described as follows: Alkaline phosphatase (ALP) activity for osteoblast differentiation, calvarial osteoblasts. The data set is classed as cell-based, rat. The note with it: calvarial osteoblasts, 48 h, 10^−16M to 10^−6M. The method, then:
as §1
70 to 80% confluent Calvarial osteoblasts were treated with μM S006-1709 for 48 h in the presence of ascorbate and glycerophosphate. At the end of incubation period, total ALP activity was measured with a method using p-nitrophenylphosphate (PNPP) as substrate. The reaction mixture contained diethanolamine buffer (1 mol/L, pH 9.8), 0.5 mmol/L MgCl2.6H2O, and 10 mmol/L PNPP. ALP activity was measured by taking OD of the amount of colored product formed by the dephosphorylation of PNPP at 405 nm. […] In addition, the effect of S006-1709 on mineralization of calvarial osteoblasts was studied.
(§2) We then studied its effect in osteoblast differentiation in both calvarial and bone marrow osteoblasts. Confluent calvarial osteoblasts (70 to 80%) were treated with S006-1710 for 48 h in the presence of ascorbate and glycerophosphate at concentrations ranging from 10^−16M to 10^−6M. At the end of incubation period, total ALP activity was measured with the same method used previously using p-nitrophenylphosphate (PNPP) as substrate.
70 to 80% confluent Calvarial osteoblasts were treated with S007-1351 for 48 h in the presence of ascorbate and glycerophosphate. At the end of incubation period, total ALP activity was measured with a method using p-nitrophenylphosphate (PNPP) as substrate. The reaction mixture contained diethanolamine buffer (1 mol/L, pH 9.8), 0.5 mmol/L MgCl2.6H2O, and 10 mmol/L PNPP. ALP activity was measured by taking OD of the amount of colored product formed by the dephosphorylation of PNPP at 405 nm.
70 to 80% confluent calvarial osteoblasts were treated with S007-1352 for 48 h in the presence of ascorbate and glycerophosphate at concentrations ranging from 10^−12M to 10^−6 M. At the end of incubation period, total ALP activity was measured with the same method used previously using p-nitrophenylphosphate (PNPP) as substrate.

Data set [3] relates to Calvarial osteoblasts. The data set is described as follows: Mineralization of calvarial osteoblasts (Alizarin red extraction). The data set is classed as cell-based, rat. The note with it: 10^−12 M and 10^−10 M.
Another data set has as its system bone marrow osteoblasts. As to the kind of experiment: Mineralization of bone marrow osteoblasts (Alizarin red extraction). The data set is classed as cell-based. Conditions: 10^−12M and 10^−10 M, 18 d bone marrow culture. The source says: In addition, the effect of S006-1709 on mineralization of bone marrow osteoblasts was also studied.
In addition, the effect of S006-1710 on mineralization of bone marrow osteoblasts was also studied.

For data set [4], the system named is ovariectomized immature female rats. The data set is described as follows: Estrogenicity, uterine fresh weight in ovariectomized immature female rats. The data set is classed as in vivo, rat. Conditions: 10 mg/Kg oral; for Estrogenic Activity, % (second line of cell): relative to vehicle; for Estrogenic Activity (uterine fresh weight): three consecutive days, vehicle 16.46. The protocol:
(§3) 21 day old immature female rats (25-30 grams) were ovariectomized and given 7 days post-operative rest. Thereafter they were treated orally with the test agent (10 mg/Kg body weight) or with vehicle or Ethynyl estradiol, the reference standard for three consecutive days. For anti-estrogenicity, other than the test chemical, ethynyl estradiol (0.01 mg/kg) was given at 15 minutes interval before the test chemical. Autopsy was done 24 h after last treatment and uterine fresh weight was taken.

The test system is the same in data set [5]. As to the kind of experiment: Anti-estrogenicity, uterine fresh weight with ethynyl estradiol co-treatment. The data set is classed as in vivo, rat. The note with it: 10 mg/Kg oral plus ethynyl estradiol 0.01 mg/kg; for Anti-Estrogenic Activity, % (second line of cell): relative to ethynyl estradiol. The method, then: as §3
Data set [6] has as its system bone marrow derived osteoblasts. As to the kind of experiment: ALP activity in bone marrow derived osteoblasts. The data set is classed as cell-based. The note with it: 10^−16M to 10^−6M. The protocol: as §2

Consider two compounds from patent publication US8686028B2, “Substituted benzfurochromenes and related compounds for the prevention and treatment of bone related disorders” (Council of Scientific & Industrial Research, priority 2008, dated 2014).

Entries after “also recorded” stand apart in the source; their conditions may differ.

With `COc1ccccc1-c1coc2cc(O)ccc2c1=O` [Compound S006-1710, 7-Hydroxy-3-(2-methoxy-phenyl)-chromen-4-one], the “effect on osteoblast proliferation (MTT)” value in data set [1] is given as “no osteoblast proliferating action”. Besides, the “osteoblast ALP activity vs vehicle control” value in the data set on Calvarial osteoblasts [2] was “significant increase”. Besides, the “mineralization of calvarial osteoblasts (nascent calcium deposition, Alizarin red)” value in the data set on Calvarial osteoblasts [3] was “stimulate mineralization”. For the same compound, the “mineralization of bone marrow osteoblasts (nascent calcium deposition, Alizarin red)” value in the data set on bone marrow osteoblasts is reported as “stimulate mineralization; also recorded: significant increase”. Besides, in data set [4], the “estrogenicity (in words)” value was “estrogenic”; the “Estrogenic Activity, % (second line of cell)” value came out at 446%; the “Estrogenic Activity (uterine fresh weight)” value came out at 89.96. Moreover, in data set [5], the “Anti-Estrogenic Activity (uterine fresh weight)” value is reported as 79.9; the “anti-estrogenicity (in words)” value is on record as “not found to be anti-estrogenic”; the “Anti-Estrogenic Activity, % (second line of cell)” value is 19%.

In general, melting point refers to the temperature, or range, at which the solid turns liquid. In turn, `O=c1c(-c2ccccc2O)coc2cc(O)ccc12` [Compound S006-1711, 7-Hydroxy-3-(2-hydroxy-phenyl)-chromen-4-one] displayed a melting point of 196 to 198 °C. The “effect on osteoblast proliferation (MTT)” value in data set [1] was “did not have any effect”. For the same compound, the “osteoblast ALP activity vs vehicle control” value in the data set on Calvarial osteoblasts [2] is on record as “stimulated ALP activity”. In data set [6], the “ALP activity in bone marrow derived osteoblasts” value is reported as “stimulated ALP activity”. Besides, the “mineralization of calvarial osteoblasts (nascent calcium deposition, Alizarin red)” value in the data set with Calvarial osteoblasts [3] was “stimulated mineralization”. Besides, in the data set with bone marrow osteoblasts, the “mineralization of bone marrow osteoblasts (nascent calcium deposition, Alizarin red)” value is on record as “stimulated mineralization”. Also, in data set [4], the “estrogenicity (in words)” value is “estrogenic”; the “Estrogenic Activity, % (second line of cell)” value is on record as 192%; the “Estrogenic Activity (uterine fresh weight)” value came to 48.13. In addition, in data set [5], the “Anti-Estrogenic Activity (uterine fresh weight)” value is given as 85.16; the “anti-estrogenicity (in words)” value is listed as “not found to be anti-estrogenic”; the “Anti-Estrogenic Activity, % (second line of cell)” value worked out at 13%.
